Results reported in patent US12696901B2, “Pesticidally active heterocyclic derivatives with sulfur containing substituents” (SYNGENTA CROP PROTECTION AG, priority 2020, dated 2026).

Columns and labels:
Format in all cases: in vivo
[1] = test system: Diabrotica balteata (Corn Root Worm); test: Activity against Diabrotica balteata (corn root worm), sprayed maize sprouts on agar; conditions: 96 h, application rate 200 ppm, L2 larvae, 4 days after infestation, read-out: effect in at least one of the two categories (mortality or growth inhibition)
Method: Example B2: Activity Against Diabrotica balteata (Corn Root Worm)
Maize sprouts placed onto an agar layer in 24-well microtiter plates were treated with aqueous test solutions prepared from 10,000 ppm DMSO stock solutions by spraying. After drying, the plates were infested with L2 larvae (6 to 10 per well). The samples were assessed for mortality and growth inhibition in comparison to untreated samples 4 days after infestation.

[2] = test system: Myzus persicae (Green Peach Aphid); test: Activity against Myzus persicae (green peach aphid), systemic activity; conditions: 144 h, test rate 24 ppm, roots of pea seedlings in test solution, 6 days
Method: Example B8: Activity Against Myzus persicae (Green Peach Aphid) Systemic Activity
Roots of pea seedlings infested with an aphid population of mixed ages were placed directly into aqueous test solutions prepared from 10,000 ppm DMSO stock solutions. The samples were assessed for mortality 6 days after placing seedlings into test solutions.

[3] = test system: Plutella xylostella (Diamond Back Moth); test: Activity against Plutella xylostella (diamond back moth), treated artificial diet; conditions: 192 h, application rate 200 ppm, eggs, 8 days after infestation, read-out: effect in at least one of the two categories (mortality or growth inhibition)
Outline: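 Artificial diet treated with aqueous test solutions made from 10,000 ppm DMSO stocks, dried, then infested with Plutella eggs. Mortality and growth inhibition scored against untreated samples 8 days after infestation.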

[4] = test system: Spodoptera littoralis (Egyptian Cotton Leaf Worm); test: Activity against Spodoptera littoralis (Egyptian cotton leaf worm), sprayed cotton leaf discs; conditions: foliar, 72 h, application rate 200 ppm, L1 larvae, 3 days after infestation
Outline: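 Leaf discs on agar were sprayed with aqueous solutions prepared from 10,000 ppm DMSO stock, dried, then infested with five L1 larvae. Mortality, anti-feeding and growth inhibition were scored against untreated discs 3 days after infestation. Control was recorded when any one category exceeded the untreated sample.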

[5] = test system: Myzus persicae (Green Peach Aphid); test: Activity against Myzus persicae (green peach aphid), feeding/contact activity; conditions: 144 h, application rate 200 ppm, mixed ages, 6 days after infestation
Method: Example B6: Activity Against Myzus persicae (Green Peach Aphid) Feeding/Contact Activity
Sunflower leaf discs were placed onto agar in a 24-well microtiter plate and sprayed with aqueous test solutions prepared from 10,000 ppm DMSO stock solutions. After drying, the leaf discs were infested with an aphid population of mixed ages. The samples were assessed for mortality 6 days after infestation.

[6] = test system: Chilo suppressalis (Striped Rice Stemborer); test: Activity against Chilo suppressalis (striped rice stemborer), treated artificial diet; conditions: 144 h, application rate 200 ppm, L2 larvae, 6 days after infestation
Outline: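 Artificial diet treated with aqueous test solutions made from 10,000 ppm DMSO stocks, dried, then infested with L2 larvae, 6-8 per well. Mortality, anti-feeding effect and growth inhibition scored versus untreated samples 6 days after infestation; control counted when any one category exceeds the untreated sample.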

[7] = test system: Frankliniella occidentalis (Western Flower Thrips); test: Activity against Frankliniella occidentalis (western flower thrips), sprayed sunflower leaf discs; conditions: foliar, 168 h, application rate 200 ppm, population of mixed ages, 7 days after infestation
Method: Example B4: Activity Against Frankliniella occidentalis (Western Flower Thrips)
Sunflower leaf discs were placed on agar in 24-well microtiter plates and sprayed with aqueous test solutions prepared from 10,000 ppm DMSO stock solutions. After drying the leaf discs were infested with a Frankliniella population of mixed ages. The samples were assessed for mortality 7 days after infestation.

[8] = test system: Carpocapsa (Cydia) Pomonella (Codling Moth); test: Activity against Carpocapsa (Cydia) pomonella (codling moth), sprayed diet cubes; conditions: 336 h, application rate 12.5 ppm, L1 larvae, 14 days after infestation, read-out: effect in at least one of the two categories (mortality or growth inhibition)
Outline: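 Paraffin-coated diet cubes were sprayed with test solutions at 12.5 ppm, dried, and infested with one L1 larva each (10 replicates). After incubation at 26–27 °C, mortality and growth inhibition were scored 14 days after infestation.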

[9] = test system: Tetranychus urticae (Two-Spotted Spider Mite); test: Activity against Tetranychus urticae (two-spotted spider mite), sprayed bean leaf discs; conditions: foliar, 192 h, application rate 200 ppm, mixed population (mobile stages), 8 days after infestation
Method: Example B9: Activity Against Tetranychus urticae (Two-Spotted Spider Mite)
Bean leaf discs on agar in 24-well microtiter plates were sprayed with aqueous test solutions prepared from 10,000 ppm DMSO stock solutions. After drying the leaf discs were infested with a mite population of mixed ages. The samples were assessed for mortality on mixed population (mobile stages) 8 days after infestation.

[10] = test system: Euschistus heros (Neotropical Brown Stink Bug); test: Activity against Euschistus heros (neotropical brown stink bug), sprayed soybean leaves; conditions: 120 h, application rate 200 ppm, N2 nymphs, 5 days after infestation, read-out: effect in at least one of the two categories (mortality or growth inhibition)
Method: Example B3: Activity Against Euschistus heros (Neotropical Brown Stink Bug)
Soybean leaves on agar in 24-well microtiter plates were sprayed with aqueous test solutions prepared from 10,000 ppm DMSO stock solutions. After drying the leaves were infested with N2 nymphs. The samples were assessed for mortality and growth inhibition in comparison to untreated samples 5 days after infestation.

[11] = test system: Bemisia tabaci (Cotton White Fly); test: Activity against Bemisia tabaci (cotton white fly), sprayed cotton leaf discs; conditions: foliar, 144 h, application rate 200 ppm, adult white flies, 6 days after incubation
Method: Example B1: Activity Against Bemisia tabaci (Cotton White Fly)
Cotton leaf discs were placed on agar in 24-well microtiter plates and sprayed with aqueous test solutions prepared from 10,000 ppm DMSO stock solutions. After drying the leaf discs were infested with adult white flies. The samples were checked for mortality 6 days after incubation.

[12] = test system: Diabrotica balteata (Corn Root Worm); test: Activity against Diabrotica balteata (corn root worm), corn seedlings on filter paper in cups; conditions: 120 h, application rate 3 ppm, L2 larva, 5 days after treatment, read-out: effect in at least one of the two categories (mortality or growth inhibition)
Method: Example B12: Activity Against Diabrotica Balteata (Corn Root Worm)
Three corn seedlings were placed on wetted filter paper in plastic cups, and 3 ml of diluted test solutions were pipetted onto them. The cups were infested with 10 L2 larva and checked for mortality and growth regulation 5 days after treatment.

CCS(=O)(=O)c1c(N2Cc3ncc(C(F)(F)F)cc3C2=O)nc2cc(OC)ccn12 [Compound P13, 6-(3-ethylsulfonyl-7-methoxy-imidazo [1,2-a]pyridin-2-yl)-3-(trifluoromethyl)-7H-pyrrolo[3,4-b] pyridin-5-one]
≥ 80%: percent effect (mortality or growth inhibition) at 200 ppm [1] | mortality at 24 ppm [2] | percent effect (mortality or growth inhibition) at 200 ppm [3] | percent control (mortality, anti-feedant effect or growth inhibition) at 200 ppm [4] | mortality at 200 ppm [5]

CCS(=O)(=O)c1c(N2Cc3ncc(C(F)(F)F)cc3C2=O)nc2cc(C)ccn12 [Compound P23, 6-(3-ethylsulfonyl-7-methyl-imidazo[1,2-a]pyridin-2-yl)-3-(trifluoromethyl)-7H-pyrrolo[3,4-b]pyridin-5-one]
≥ 80%: percent effect (mortality or growth inhibition) at 200 ppm [1] | mortality at 24 ppm [2] | percent effect (mortality or growth inhibition) at 200 ppm [3] | percent control (mortality, anti-feedant effect or growth inhibition) at 200 ppm [4] | percent control (mortality, anti-feedant effect or growth inhibition) at 200 ppm [6] | mortality at 200 ppm [5]

CCS(=O)(=O)c1c(N2Cc3ncc(C(F)(F)F)cc3C2=O)nc2ccc(C(C)(C)C#N)cn12 [Compound P35, 2-[3-ethylsulfonyl-2-[5-oxo-3-(trifluoromethyl)-7H-pyrrolo[3,4-b]pyridin-6-yl]imidazo[1,2-a]pyridin-6-yl]-2-methyl-propanenitrile]
≥ 80%: mortality at 200 ppm [7] | percent effect (mortality or growth inhibition) at 200 ppm [1] | percent effect (mortality or growth inhibition) at 12.5 ppm [8] | percent effect (mortality or growth inhibition) at 200 ppm [3] | mortality at 200 ppm [9] | percent control (mortality, anti-feedant effect or growth inhibition) at 200 ppm [4] | percent effect (mortality or growth inhibition) at 200 ppm [10] | percent control (mortality, anti-feedant effect or growth inhibition) at 200 ppm [6] | mortality at 200 ppm [11] | percent effect (mortality or growth inhibition) at 3 ppm [12] | mortality at 200 ppm [5]

CCS(=O)(=O)c1c(N2Cc3ncc(C(F)(F)F)cc3C2=O)nc2ccc(NC(C)=O)cn12 [Compound P36, N-[3-ethylsulfonyl-2-[5-oxo-3-(trifluoromethyl)-7H-pyrrolo[3,4-b]pyridin-6-yl]imidazo[1,2-a]pyridin-6-yl]acetamide]
≥ 80%: percent effect (mortality or growth inhibition) at 200 ppm [1] | mortality at 24 ppm [2] | percent effect (mortality or growth inhibition) at 200 ppm [3] | percent control (mortality, anti-feedant effect or growth inhibition) at 200 ppm [4] | percent control (mortality, anti-feedant effect or growth inhibition) at 200 ppm [6] | mortality at 200 ppm [5]
